In patent publication US6630499B1, “Control of arthropods in animals” (Aventis CropScience, S.A., priority 1998, dated 2003):

Key:
Assay type in all cases: in vivo
[1] = Emesis in treated cats; details: cats, 20 mg/kg
Procedure: (§1) By the term “emesis” is meant vomiting. Generally an emetic substance elicits emesis in less than 24 hours after administration, usually less than 8 hours, more usually less than 2 hours. By the term “substantially non-emetic” is meant that, generally, when a compound or composition of the invention is administered to a population of animals, more than 70% (or at least ⅔) of the animals are free of emesis. Preferably, more than 80%, most preferably more than 90%, of said population is free of emesis.
(§2) In the animals treated with the compounds above, there was substantially no emesis after 2, 8 and 24 hours. Generally long-term control of fleas and ticks was provided in dogs. In the cats treated, there was commercially acceptable control of fleas for at least one day post treatment.
(§3) The compounds listed below were formulated and tested as described in Biological Example 1, again at the dosage level of active ingredient of 10 mg/kg in dogs and 20 mg/kg in cats. Results at 1 DPT (day post-treatment) are tabulated below, where the compound numbers are the same as those listed in Tables 1, 2, 4, 5, 6, 7, 8, 9, 10, 11, 12 and 13 hereinabove.

[2] = Emesis in treated dogs; details: dogs, 10 mg/kg
Procedure: as §1, §2, §3

[3] = system: cat fleas (Ctenocephalides felis); assay: Control of cat fleas on treated cats (Biological Examples 1-3); details: cats, 20 mg/kg, 30 mg/mL in 1:1 dimethyl sulfoxide/corn oil, 1 day post-treatment, versus placebo group
Procedure: (§4) All dogs were infested with cat fleas (Ctenocephalides felis) and with ticks (Rhipicephalus sanguineus) 1 day prior to administration of the compound. Cats were only infested with fleas. The initial flea and tick counts were performed 1 day after the administration of the compounds. At 7, 14, 21 and 28 days after treatment the dogs were re-infested with ticks and 8, 15, 22 and 29 days after treatment the dogs and cats were re-infested with fleas. At 1, 9, 16, 23 and 30 days after treatment the control of fleas and ticks in treated dogs and cats was determined versus a group of infested dogs and cats which received a placebo consisting of a 1:1 volume/volume solution of dimethyl sulfoxide and corn oil. To determine the efficacies of the compounds, the arthropods were combed from the animals and counted.
as §3
(§5) Testing was carried out as described in Biological Example 1. […] The Huang et al compound was deemed to have insufficient activity to be tested in cats.

[4] = system: cat fleas (Ctenocephalides felis); assay: Control of cat fleas on treated dogs (Biological Examples 1-3); details: dogs, 10 mg/kg, 30 mg/mL in 1:1 dimethyl sulfoxide/corn oil, 1 day post-treatment, versus placebo group
Procedure: as §4, §3, §5

[5] = system: ticks (Rhipicephalus sanguineus); assay: Control of ticks on treated dogs (Biological Examples 1-3); details: dogs, 10 mg/kg, 30 mg/mL in 1:1 dimethyl sulfoxide/corn oil, 1 day post-treatment, versus placebo group
Procedure: as §4, §3, §5

Compound	% Emesis [1]	% Emesis [2]	% Control 1 DPT (Fleas) [3]	% Control 1 DPT (Fleas/Ticks): Fleas [4]	% Control 1 DPT (Fleas/Ticks): Ticks [5]
CC(=O)OCC(=O)N(C)c1c(SC(F)(F)F)c(C#N)nn1-c1c(Cl)cc(C(F)(F)F)cc1Cl [Compound 36-1]	25%	0%	100%	71%	92%
CCOCC(=O)N(C)c1c(S(=O)(=O)C(F)(F)F)c(C#N)nn1-c1c(Cl)cc(C(F)(F)F)cc1Cl [Compound 3-5]	0%	33%	100%	100/100%	100/100%
CN(C(=O)c1ccco1)c1c(SC(F)(F)F)c(C#N)nn1-c1c(Cl)cc(C(F)(F)F)cc1Cl [Compound 130-1]	25%	0%	93%	100/100%	100/100%
CC(=O)O.N#Cc1nn(-c2c(Cl)cc(C(F)(F)F)cc2Cl)c(N=CNCC(F)(F)F)c1SC(F)(F)F [Compound 232]	0%	0%	100%	99%	35%
CCCN(C(=O)OCC)c1c(SC(F)(F)F)c(C#N)nn1-c1c(Cl)cc(C(F)(F)F)cc1Cl [Compound 76-1]	0%	0%	100%	100%	86%
N#Cc1nn(-c2c(Cl)cc(C(F)(F)F)cc2Cl)c(N(CC2CC2)C(=O)C2CCCO2)c1S(=O)(=O)C(F)(F)F (racemic) [Compound 7-11]	0%	0%	100%	100/100%	100/100%
CCN(C(=O)OC)c1c(SC(F)(F)F)c(C#N)nn1-c1c(Cl)cc(C(F)(F)F)cc1Cl [Compound 71-1]	50%	0%	100%	100/100%	100/100%
CC(C)OC(=O)N(c1c(SC(F)(F)F)c(C#N)nn1-c1c(Cl)cc(C(F)(F)F)cc1Cl)C(C)C [Compound 81-1]	0%	0%	100%	76%	66%
CCOCC(=O)N(C)c1c(SC(F)(F)F)c(C#N)nn1-c1c(Cl)cc(C(F)(F)F)cc1Cl [Compound 3-1]	0%	0%	100%	100%	96%
CCOC(=O)N(C)c1c(SC(F)(F)F)c(C#N)nn1-c1c(Cl)cc(C(F)(F)F)cc1Cl [Compound 68-1, 3-cyano-1-(2,6-dichloro-4-trifluoromethylphenyl)-5-(N-ethoxycarbonyl-N-methyl)amino-4-trifluoromethylthiopyrazole]	0%	0%	100%	100%	77%
CCCN(C(=O)OC)c1c(SC(F)(F)F)c(C#N)nn1-c1c(Cl)cc(C(F)(F)F)cc1Cl [Compound 75-1]	25%	0%	71%	89%	57%
COC(=O)N(C)c1c(SC(F)(F)F)c(C#N)nn1-c1c(Cl)cc(C(F)(F)F)cc1Cl [Compound 67-1]	0%	33%	53%	100/100%	100/100%
